Columns and labels:
5-LO [1] = target: T1, 5-LO (Homo sapiens, UniProt P09917); assay: Test (b): heparinised human blood challenged with A23187, LTB4 radioimmunoassay; format: cell-based
T1 construct: heparinised human blood, prior to challenge with the calcium ionophore A23187; endogenous in cells; host or cells: heparinised human whole blood (blood cells, A23187-challenged)
T1 sequence (P09917 1-674): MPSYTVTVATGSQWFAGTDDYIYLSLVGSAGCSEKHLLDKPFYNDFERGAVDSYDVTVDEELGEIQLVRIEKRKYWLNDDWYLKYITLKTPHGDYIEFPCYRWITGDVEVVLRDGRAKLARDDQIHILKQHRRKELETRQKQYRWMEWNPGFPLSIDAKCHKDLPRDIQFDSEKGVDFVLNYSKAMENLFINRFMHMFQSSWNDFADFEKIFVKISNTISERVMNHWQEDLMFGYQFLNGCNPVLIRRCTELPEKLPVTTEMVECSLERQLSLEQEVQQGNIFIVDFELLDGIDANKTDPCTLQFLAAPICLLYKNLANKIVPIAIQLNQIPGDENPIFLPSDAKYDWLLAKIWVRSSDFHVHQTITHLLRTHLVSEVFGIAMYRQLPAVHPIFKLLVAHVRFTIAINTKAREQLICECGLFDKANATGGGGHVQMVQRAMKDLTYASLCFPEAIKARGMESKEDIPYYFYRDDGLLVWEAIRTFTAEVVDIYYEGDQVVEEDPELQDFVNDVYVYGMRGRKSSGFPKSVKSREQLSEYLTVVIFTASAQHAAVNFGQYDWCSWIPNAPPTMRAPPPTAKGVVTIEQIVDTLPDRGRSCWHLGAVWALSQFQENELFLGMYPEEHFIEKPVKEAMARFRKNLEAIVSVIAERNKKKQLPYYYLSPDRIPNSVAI
Protocol: (§1) (b) An in vitro assay system involving incubating a test compound with heparinised human blood, prior to challenge with the calcium ionophore A23187 and then indirectly measuring the inhibitory effects on 5-LO by assaying the amount of LTB4 using the specific radioimmunoassay described by Carey and Forder (F. Carey and R. A. Forder, Brit. J. Pharmacol. 1985, 84, 34P) which involves the use of a protein-LTB4 conjugate produced using the procedure of Young et alia (Prostaglandins, 1983, 26(4), 605-613). The effects of a test compound on the enzyme cyclooxygenase (which is involved in the alternative metabolic pathway for arachidonic acid and gives rise to prostaglandins, thromboxanes and related metabolites) may be measured at the same time using the specific radioimmunoassay for thromboxane B2 (TxB2) described by Carey and Forder (see above). This test provides an indication of the effects of a test compound against 5-LO and also cyclooxygenase in the presence of blood cells and proteins. It permits the selectivity of the inhibitory effect on 5-LO or cyclooxygenase to be assessed.

cyclooxygenase = target: T2, cyclooxygenase (Homo sapiens, UniProt P23219); assay: Test (b): heparinised human blood challenged with A23187, TxB2 radioimmunoassay; format: cell-based
T2 construct: heparinised human blood, prior to challenge with the calcium ionophore A23187; endogenous in cells; host or cells: heparinised human whole blood (platelets and other blood cells, A23187-challenged)
Protocol: as §1

5-LO [2] = target: T3, 5-LO (Rattus norvegicus, UniProt P12527); assay: Test (c): ex vivo assay after (usually oral) administration, blood challenged with A23187, LTB4 radioimmunoassay; format: in vivo
T3 construct: blood collection, heparinisation, challenge with A23187 and radioimmunoassay of LTB4 and TxB2; endogenous in cells
T3 sequence (P12527 1-673): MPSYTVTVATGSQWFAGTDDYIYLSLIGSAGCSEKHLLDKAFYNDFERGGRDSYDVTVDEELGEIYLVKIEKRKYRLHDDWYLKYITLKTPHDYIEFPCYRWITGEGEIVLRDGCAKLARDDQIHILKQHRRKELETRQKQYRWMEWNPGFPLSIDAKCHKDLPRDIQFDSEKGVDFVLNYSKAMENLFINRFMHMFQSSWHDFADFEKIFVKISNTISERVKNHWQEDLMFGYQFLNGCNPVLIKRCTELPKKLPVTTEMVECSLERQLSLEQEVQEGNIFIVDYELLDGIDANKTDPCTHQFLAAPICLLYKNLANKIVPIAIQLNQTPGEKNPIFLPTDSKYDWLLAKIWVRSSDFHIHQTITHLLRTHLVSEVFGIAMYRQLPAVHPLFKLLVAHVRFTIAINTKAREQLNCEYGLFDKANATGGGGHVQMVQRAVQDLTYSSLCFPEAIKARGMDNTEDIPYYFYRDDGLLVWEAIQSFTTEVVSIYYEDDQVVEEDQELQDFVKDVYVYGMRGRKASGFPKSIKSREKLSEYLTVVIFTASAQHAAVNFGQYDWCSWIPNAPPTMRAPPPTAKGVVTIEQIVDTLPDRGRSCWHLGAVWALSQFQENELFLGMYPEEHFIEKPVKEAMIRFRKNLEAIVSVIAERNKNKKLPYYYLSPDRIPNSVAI
Protocol: (c) An ex vivo assay system, which is a variation of test b) above, involving administration of a test compound (usually orally as the suspension produced when a solution of the test compound in dimethylsulphoxide is added to carboxymethylcellulose), blood collection, heparinisation, challenge with A23187 and radioimmunoassay of LTB4 and TxB2. This test provides an indication of the bioavailability of a test compound as an inhibitor of 5-LO or cyclooxygenase.

T2 sequence (P23219 24-599): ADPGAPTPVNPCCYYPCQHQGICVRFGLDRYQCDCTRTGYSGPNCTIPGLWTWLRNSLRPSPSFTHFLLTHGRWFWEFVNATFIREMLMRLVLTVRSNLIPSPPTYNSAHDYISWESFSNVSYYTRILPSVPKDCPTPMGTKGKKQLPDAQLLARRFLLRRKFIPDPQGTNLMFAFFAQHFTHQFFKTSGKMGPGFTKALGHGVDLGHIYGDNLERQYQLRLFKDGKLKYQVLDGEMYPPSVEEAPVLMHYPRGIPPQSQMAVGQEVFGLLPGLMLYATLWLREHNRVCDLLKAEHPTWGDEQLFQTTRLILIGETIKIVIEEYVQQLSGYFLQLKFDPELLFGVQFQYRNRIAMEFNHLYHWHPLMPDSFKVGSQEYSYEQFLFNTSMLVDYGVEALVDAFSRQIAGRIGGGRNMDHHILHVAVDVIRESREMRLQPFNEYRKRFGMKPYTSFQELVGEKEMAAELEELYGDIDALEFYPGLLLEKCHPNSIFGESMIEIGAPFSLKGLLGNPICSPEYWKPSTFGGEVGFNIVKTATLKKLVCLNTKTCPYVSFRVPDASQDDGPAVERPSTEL

IC50 (5-LO [1]): 500 nM
IC50 (cyclooxygenase): > 40000 nM
ED50 (5-LO [2]): 30 mg/kg
Compound: CCC(COC)(OC)c1cccc(OCc2ccc3ccccc3c2)c1 (stereo not drawn) [2-methoxy-2-[3-(naphth-2-ylmethoxy)phenyl]but-1-yl methyl ether]
